Read-outs that look alike come from different tables or passages of the source.
How the values were obtained:
[1] = type: in vitro ADME; settings: human, 200 μM
Description: (§1) 1.13 was incubated at 37° C. in PBS and human plasma at a concentration of 200 μM. The concentration after 12, 24 and 48 h was determined (n=3) by titration with activator 2.9 and simultaneous absorbance measurements.

[2] = Second order rate constants, TCO with tetrazine activators, stopped-flow spectrophotometry in PBS; settings: PBS at 37° C., 25 μM tetrazine, 50 μM TCO
Description: Second order rate constants for the reaction of tetrazines activators with 1.13 and 1.71 were determined using a SX20 stopped-flow spectrophotometer from Applied Photophysics. Measurements were performed at 37° C. with 25 μM tetrazine and 50 μM TCO in PBS, in triplicates, monitored at 535 nm. Data was analyzed using GraphPad Prism. Second order rate constants were determined from nonlinear fitting of the absorbance vs. time curves to the second order rate equation. […] Importantly, 2.17 and 2.18 are very reactive, but afford low release yields with TCO triggers that are not part of this invention (i.e. 1.71) [Versteegen et al., Angew. Chem. Int. Ed. 2013, 52, 14112-14116].

[3] = Trigger stability in vitro in PBS; type: physicochemical; settings: 37° C., 200 μM, after 48 h, n=3
Description: as §1

For `COC(=O)[C@]1(O)CC/C=C/[C@H](OC(=O)NCCOCCOCCOCCO)CC1` [Compound 1.13, Methyl(1S,4E,6R)-1-hydroxy-6-{[(2-{2-[2-(2-hydroxyethoxy)ethoxy]ethoxy}ethyl)carbamoyl]oxy}cyclooct-4-ene-1-carboxylate], the “residual intact TCO” value ([1]; 24 h) was 98±7%, the “residual intact TCO” value ([1]; 48 h) was 76±9% and the k2 ([2]; activator 2.12) was 260 ± 40 M⁻¹ s⁻¹. For the same compound, the k2 ([2]; activator 2.17) was 8700 ± 1200 M⁻¹ s⁻¹, the k2 ([2]; activator 2.18) was 10400 ± 1100 M⁻¹ s⁻¹ and the k2 ([2]; activator 2.9) was 70 ± 10 M⁻¹ s⁻¹. For the same compound, the “intact TCO” value [3] was 101±5%.
